The results in this text go back to PubChem BioAssay AID328 (DTP/NCI, 2004).

Values joined by “and” are separate entries in the source; they are usually repeats but may differ in a detail not shown here. Equal entries are not always repeated. Inconclusive results and toxic doses are left out.

This experiment deals with BDF1 mice, P388 leukemia ip, median survival T/C. As to the kind of experiment: NCI In Vivo Anticancer Drug Screen. Data for tumor model P388 Leukemia (intraperitoneal) in B6D2F1 (BDF1) mice. The conditions noted are these: endpoint: median survival time, higher = longer survival. Summed up:
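Transplantable tumour in mice; compound vs vehicle dosing; survival scored; ratio of treated to control reported.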

The mark [1] stands for this setting: dose: 25.0 mg/kg/injection, schedule: Q04DX003 (ip), vehicle: Klucel (hydroxypropylcellulose) (HPC).
The mark [2] stands for this setting: dose: 12.5 mg/kg/injection, schedule: Q01DX009 (ip), vehicle: Klucel (hydroxypropylcellulose) (HPC).
The mark [3] stands for this setting: dose: 25.0 mg/kg/injection, schedule: Q01DX009 (ip), vehicle: Klucel (hydroxypropylcellulose) (HPC).
Setting [4] is: dose: 50.0 mg/kg/injection, schedule: Q01DX009 (ip), vehicle: Klucel (hydroxypropylcellulose) (HPC).
Where [5] appears, read: dose: 100.0 mg/kg/injection, schedule: Q04DX003 (ip), vehicle: Klucel (hydroxypropylcellulose) (HPC).
[6] abbreviates: dose: 50.0 mg/kg/injection, schedule: Q04DX003 (ip), vehicle: saline with Tween-80.
Setting [7] is: dose: 100.0 mg/kg/injection, schedule: Q04DX003 (ip), vehicle: saline with Tween-80.
Setting [8] is: dose: 200.0 mg/kg/injection, schedule: Q04DX003 (ip), vehicle: saline with Tween-80.
The mark [9] stands for this setting: dose: 400.0 mg/kg/injection, schedule: Q04DX003 (ip), vehicle: saline with Tween-80.
Setting [10] is: dose: 100.0 mg/kg/injection, schedule: Q04DX003 (ip), vehicle: saline.
[11] abbreviates: dose: 200.0 mg/kg/injection, schedule: Q01DX009 (ip), vehicle: Klucel (hydroxypropylcellulose) (HPC).
[12] abbreviates: dose: 100.0 mg/kg/injection, schedule: Q01DX009 (ip), vehicle: saline with Tween-80.
Where [13] appears, read: dose: 50.0 mg/kg/injection, schedule: Q01DX005 (ip), vehicle: saline with Tween-80.
Setting [14] is: dose: 100.0 mg/kg/injection, schedule: Q01DX005 (ip), vehicle: saline with Tween-80.

As for `CCc1ccc(NC(=O)N(CCCl)N=O)cc1`, the T/C reads like this: (dose: 0.62 mg/kg/injection, schedule: Q04DX003 (ip), vehicle: Klucel (hydroxypropylcellulose) (HPC)) 109 % of control; (dose: 0.8 mg/kg/injection, schedule: Q01DX009 (ip), vehicle: gum acacia) 158 % of control; (dose: 1.3 mg/kg/injection, schedule: Q01DX009 (ip), vehicle: gum acacia) 154 % of control; (dose: 2.0 mg/kg/injection, schedule: Q01DX009 (ip), vehicle: gum acacia) 153 % of control and 187 % of control; (dose: 3.0 mg/kg/injection, schedule: Q01DX009 (ip), vehicle: gum acacia) 176 % of control; (dose: 4.5 mg/kg/injection, schedule: Q01DX009 (ip), vehicle: gum acacia) 196 % of control. Further, the T/C was 177 % of control and 204 % of control (dose: 5.0 mg/kg/injection, schedule: Q04DX003 (ip), vehicle: Klucel (hydroxypropylcellulose) (HPC)); 230 % of control and 236 % of control (dose: 7.0 mg/kg/injection, schedule: Q01DX009 (ip), vehicle: gum acacia); 214 % of control (dose: 8.0 mg/kg/injection, schedule: Q04DX003 (ip), vehicle: Klucel (hydroxypropylcellulose) (HPC)); 250 % of control (dose: 11.0 mg/kg/injection, schedule: Q01DX009 (ip), vehicle: gum acacia); 238 % of control (dose: 12.0 mg/kg/injection, schedule: Q04DX003 (ip), vehicle: Klucel (hydroxypropylcellulose) (HPC)); 196 % of control (dose: 17.0 mg/kg/injection, schedule: Q01DX009 (ip), vehicle: gum acacia). The T/C runs as follows: (dose: 18.0 mg/kg/injection, schedule: Q04DX003 (ip), vehicle: Klucel (hydroxypropylcellulose) (HPC)) 233 % of control and 285 % of control; (dose: 25.0 mg/kg/injection, schedule: Q01DX009 (ip), vehicle: gum acacia) 212 % of control; under setting [1], 300 % of control; (dose: 37.0 mg/kg/injection, schedule: Q04DX003 (ip), vehicle: Klucel (hydroxypropylcellulose) (HPC)) 300 % of control.
Take `O=C(O)C(CCCCC1CCCCC1)CCC1CCCCC1` (stereo unspecified): the T/C (dose: 50.0 mg/kg/injection, schedule: Q01DX001 (ip), vehicle: saline with Tween-80) was 100 % of control; the T/C (dose: 100.0 mg/kg/injection, schedule: Q01DX001 (ip), vehicle: saline with Tween-80) is 100 % of control; the T/C (dose: 200.0 mg/kg/injection, schedule: Q01DX001 (ip), vehicle: saline with Tween-80) is 100 % of control.
For the compound `NC(=O)C(c1ccccc1)N1CCCCC1` (stereo unspecified), the T/C runs as follows: (dose: 6.25 mg/kg/injection, schedule: Q01DX009 (ip), vehicle: Klucel (hydroxypropylcellulose) (HPC)) 109 % of control; under setting [2], 95 % of control; under setting [3], 95 % of control; under setting [1], 104 % of control; under setting [4], 91 % of control; (dose: 50.0 mg/kg/injection, schedule: Q04DX003 (ip), vehicle: Klucel (hydroxypropylcellulose) (HPC)) 104 % of control. In addition, the T/C under setting [5] was 108 % of control.
`Cc1cccc2c1C(=O)OC2(C)c1cccc2ccccc12` (stereo unspecified): the T/C is, setting by setting: under setting [6], 99 % of control; under setting [7], 96 % of control; under setting [8], 118 % of control; under setting [9], 95 % of control.
For the compound `C=CS(=O)(=O)Cc1ccccc1`, the T/C is, setting by setting: (dose: 25.0 mg/kg/injection, schedule: Q04DX003 (ip), vehicle: saline with Tween-80) 104 % of control; under setting [6], 93 % of control.
Turning to `CCCCNP(=O)(N1CC1)N1CC1`, the T/C by setting is: (dose: 8.0 mg/kg/injection, schedule: Q04DX003 (ip), vehicle: saline with Tween-80) 116 % of control; (dose: 8.25 mg/kg/injection, schedule: Q04DX003 (ip), vehicle: saline with Tween-80) 154 % of control; (dose: 12.0 mg/kg/injection, schedule: Q04DX003 (ip), vehicle: saline with Tween-80) 100 % of control; (dose: 12.5 mg/kg/injection, schedule: Q04DX003 (ip), vehicle: saline with Tween-80) 190 % of control; (dose: 18.75 mg/kg/injection, schedule: Q04DX003 (ip), vehicle: saline with Tween-80) 218 % of control.
`CSC(=S)NNC(=O)C1CCCCC1`: the T/C by setting is: (dose: 25.0 mg/kg/injection, schedule: Q01DX001 (ip), vehicle: saline sonified) 100 % of control; (dose: 50.0 mg/kg/injection, schedule: Q01DX001 (ip), vehicle: saline sonified) 104 % of control; (dose: 100.0 mg/kg/injection, schedule: Q01DX001 (ip), vehicle: saline sonified) 100 % of control.
Consider `CC(CC(Sc1ccccc1)Sc1ccccc1)CC(Sc1ccccc1)Sc1ccccc1`, for which the T/C is, setting by setting: (dose: 100.0 mg/kg/injection, schedule: Q04DX002 (ip), vehicle: saline with Tween-80) 100 % of control; (dose: 200.0 mg/kg/injection, schedule: Q04DX002 (ip), vehicle: saline with Tween-80) 92 % of control; (dose: 400.0 mg/kg/injection, schedule: Q04DX002 (ip), vehicle: saline with Tween-80) 106 % of control.
As for `CCN(CC)Cc1c(C)[nH]c2ccc(N(C)C)cc2c1=O`, the T/C is, setting by setting: (dose: 1.56 mg/kg/injection, schedule: Q01DX009 (ip), vehicle: water) 86 % of control and 110 % of control; (dose: 3.12 mg/kg/injection, schedule: Q01DX009 (ip), vehicle: water) 89 % of control and 100 % of control; (dose: 6.25 mg/kg/injection, schedule: Q01DX009 (ip), vehicle: water) 89 % of control; under setting [2], 99 % of control; (dose: 12.5 mg/kg/injection, schedule: Q01DX009 (ip), vehicle: water) 120 % of control; under setting [3], 108 % of control. In addition, the T/C was 111 % of control (dose: 25.0 mg/kg/injection, schedule: Q04DX003 (ip), vehicle: saline); 99 % of control under setting [4]; 112 % of control (dose: 50.0 mg/kg/injection, schedule: Q04DX003 (ip), vehicle: saline); 104 % of control under setting [10]; 106 % of control under setting [11].
For `c1ccc(OCC2CO2)cc1` (stereo unspecified), the T/C reads like this: under setting [12], 108 % of control and 118 % of control; under setting [7], 110 % of control; (dose: 200.0 mg/kg/injection, schedule: Q01DX009 (ip), vehicle: saline with Tween-80) 108 % of control and 112 % of control; under setting [8], 115 % of control; under setting [9], 110 % of control.
On to `COc1ccc(CC2Cc3cc(OC)c(OC)cc3C=N2)cc1OC` (stereo unspecified), for which the T/C is, setting by setting: (dose: 50.0 mg/kg/injection, schedule: Q01DX009 (ip), vehicle: saline) 96 % of control; (dose: 100.0 mg/kg/injection, schedule: Q01DX009 (ip), vehicle: saline) 107 % of control; under setting [10], 103 % of control; (dose: 200.0 mg/kg/injection, schedule: Q04DX003 (ip), vehicle: saline) 111 % of control.
As to `COc1ccccc1NC(=O)c1ccc(Cl)cc1`, the T/C is 100 % of control (dose: 100.0 mg/kg/injection, schedule: Q01DX009 (ip), vehicle: Klucel (hydroxypropylcellulose) (HPC)); 100 % of control under setting [5]; 100 % of control under setting [11]; 100 % of control (dose: 200.0 mg/kg/injection, schedule: Q04DX003 (ip), vehicle: Klucel (hydroxypropylcellulose) (HPC)); 104 % of control (dose: 400.0 mg/kg/injection, schedule: Q01DX009 (ip), vehicle: Klucel (hydroxypropylcellulose) (HPC)); 109 % of control (dose: 400.0 mg/kg/injection, schedule: Q04DX003 (ip), vehicle: Klucel (hydroxypropylcellulose) (HPC)).
In the case of `COC(=O)C(CCSC)NC(=O)CNC(=O)OC(C)(C)C` (stereo unspecified), the T/C under setting [13] is 100 % of control; the T/C under setting [14] is 105 % of control; the T/C (dose: 200.0 mg/kg/injection, schedule: Q01DX005 (ip), vehicle: saline with Tween-80) is 102 % of control.
On to `O=C(Nc1cccc2c(OC(=O)C(Cl)Cl)c(N=Nc3ccc(S(=O)(=O)Nc4nccs4)cc3)cc(N=Nc3ccc(S(=O)(=O)Nc4nccs4)cc3)c12)C(Cl)Cl` (tested in a mixture with another compound), for which the T/C by setting is: under setting [13], 103 % of control; (dose: 50.0 mg/kg/injection, schedule: Q01DX009 (ip), vehicle: saline with Tween-80) 110 % of control; under setting [14], 103 % of control; under setting [12], 124 % of control.
